Measured values published in patent US20260199365A1, “BIS-SULFONAMIDE SHIP1 ACTIVATORS” (The Research Foundation for the State University of New York, priority 2022, published 2026).

What was measured:
[1] = target: T1, recombinant human truncated SHIP1 (tSHIP1) (Homo sapiens, UniProt Q92835); experiment: Malachite Green Phosphatase Release Assay (SHIP1 phosphatase activity); assay type: biochemical; settings: for SHIP1 activation, increase in the malachite green assay: initial testing
T1 construct: tSHIP1 (SHIP1, residues 397-864) was amplified from pET24TEV-tSHIP1; His tag; made in house; host or cells: E. coli BL21
T1 sequence (Q92835 397-864): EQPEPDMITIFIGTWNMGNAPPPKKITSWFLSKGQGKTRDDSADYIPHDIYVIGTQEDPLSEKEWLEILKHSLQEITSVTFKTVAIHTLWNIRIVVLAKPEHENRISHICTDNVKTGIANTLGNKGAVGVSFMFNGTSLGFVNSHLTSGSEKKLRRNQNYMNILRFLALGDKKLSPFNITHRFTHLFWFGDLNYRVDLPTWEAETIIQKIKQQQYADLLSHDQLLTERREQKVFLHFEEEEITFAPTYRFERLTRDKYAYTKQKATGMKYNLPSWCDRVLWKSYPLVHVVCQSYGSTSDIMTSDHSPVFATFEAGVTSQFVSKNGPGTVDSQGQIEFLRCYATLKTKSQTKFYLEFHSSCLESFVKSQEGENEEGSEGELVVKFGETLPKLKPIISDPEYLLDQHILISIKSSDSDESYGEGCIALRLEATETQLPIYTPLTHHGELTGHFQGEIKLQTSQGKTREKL
In short: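 Truncated SHIP1 (residues 397-864, His-tagged, E. coli-expressed) was preincubated 2 min at room temperature with compound in pH 7.4 Hepes buffer with MgCl2/EDTA. 100 μM PI(3,4,5)P3-diC8 was then added and the reaction run 20 min at 37 °C. Phosphate release was read with malachite green at 620 nm, as % of DMSO control activity.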

Half-life in vivo = settings: mice
From the text: This is believed to be due to rapid oxidation of the sulfur functional groups in K306 by cytochrome P450 enzymes which are prevalent in mice. […] The thiophene is still a concern, however, as this heterocycle is known to undergo oxidation by CYP enzymes and can lead to toxic metabolites.

microglia = experiment: Phagolysosomal degradation of synaptosomes and dead neurons by microglia; assay type: cell-based; settings: SHIP1-dependent manner
From the text: (§1) New small molecule SHIP1 activators are needed to explore the effects of these molecules in IBD and AD model systems to define the role of SHIP in these disorders. […] The K306 structure is related to a series of sulfonamide based endothelial lipase inhibitors. As the molecule came from screening, no information was available about structure activity relationships in this SHIP1 activator. Sulfonamides have been used previously as phosphate mimics in the development of phosphatase inhibitors however, so it is possible that one of the sulfonamides in the K306 structure is mimicking the one of the phosphates on PI(3,4)P2, the endogenous ligand for allosteric activation of SHIP1. […] Given that K306 provides a new class of SHIP1 activators with a unique binding site that could have implications in Crohn's disease and Alzheimer's disease, synthetic studies were initiated on the structure.

C2-less SHIP1 protein = experiment: Agonism with SHIP1 protein lacking the C2 domain; assay type: biochemical; settings: C2 domain of the protein deleted
From the text: as §1

SMILES: Cc1sc(S(=O)(=O)N2CCSCC2)cc1NC(=O)CNS(=O)(=O)c1ccc(F)cc1 [Compound K306, 2-(4-Fluorobenzenesulfonamido)-N-[2-methyl-5-(thiomorpholine-4-sulfonyl)thiophen-3-yl]acetamide]
- Phosphatase activity in the Malachite Green Assay, analog concentration 125 μM ([1]; 125 μM analog, 100 μM PI(3,4,5)P3-diC8 substrate, normalized to vehicle control (DMSO) = 100%): 95%
- Phosphatase activity in the Malachite Green Assay, analog concentration 250 μM ([1]; 250 μM analog, 100 μM PI(3,4,5)P3-diC8 substrate, normalized to vehicle control (DMSO) = 100%): 106%
- Phosphatase activity in the Malachite Green Assay, analog concentration 500 μM ([1]; 500 μM analog, 100 μM PI(3,4,5)P3-diC8 substrate, normalized to vehicle control (DMSO) = 100%, >100% activation, <100% inhibition): 133%
- SHIP1 activation, increase in the malachite green assay ([1]; tested at 250 μM): 6%
- SHIP1 activation, increase in the malachite green assay ([1]; tested at 500 μM): 33%
- Half-life in vivo (Half-life in vivo): short-half life in vivo
- Phagolysosomal degradation of synaptosomes and dead neurons by microglia (microglia): enhance phagolysosomal degradation
- Agonism with C2-less SHIP1 protein (C2-less SHIP1 protein): maintained agonism
